From patent US12528815B2, “5-amino-8-(4-pyridyl)-[1,2,4]triazolo[4,3-c]pyrimidin-3-one compounds for use against cancer” (Nxera Pharma UK Limited, priority 2020, dated 2026) come the findings set out here.

SMILES strings stand for the structures.

One test concerns the target T1, human adenosine A1 receptor (Homo sapiens, UniProt P30542).
T1 construct: expressed in transfected cells; host or cells: HEK293 cells infected with BacMam (the same paragraph also labels the preparation CHO-hA1)
T1 sequence (P30542 1-326): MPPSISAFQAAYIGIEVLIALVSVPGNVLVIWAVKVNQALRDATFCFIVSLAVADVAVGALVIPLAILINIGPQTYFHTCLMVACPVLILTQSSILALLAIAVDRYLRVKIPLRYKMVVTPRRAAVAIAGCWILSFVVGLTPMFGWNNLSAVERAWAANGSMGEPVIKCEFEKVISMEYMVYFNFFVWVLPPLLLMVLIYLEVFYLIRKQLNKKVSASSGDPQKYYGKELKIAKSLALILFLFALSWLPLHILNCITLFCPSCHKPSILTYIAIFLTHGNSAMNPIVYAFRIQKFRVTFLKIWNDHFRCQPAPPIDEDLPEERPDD
Nature of the test: Inhibition binding assay, human adenosine A1 receptor membranes, [3H]DPCPX. The following applies: 1 nM [3H]DPCPX, 25° C., 1 h; IC50 converted to Ki with Cheng-Prusoff; read-out: A1 pKi (converted). On the procedure: (§1) Inhibition binding assays were performed using 0.2 μg of membranes prepared from HEK293 cells infected with BacMam human adenosine A2A receptor or 1.4 μg of membranes prepared from HEK293 cells infected with BacMam human adenosine A1 receptor. Membranes were incubated in 50 mM Tris-HCl (HEK293-hA2A; pH 7.4) or 50 mM Tris-HCl, 100 mM NaCl, 10 mM MgCl2 (CHO-hA1; pH 7.4) in the presence of varying concentrations of test compound and 1 nM [^3H]ZM241385 (HEK293-hA2A) or [^3H]DPCPX (CHO-hA1) at 25° C. for 1 h. The assay was then terminated by rapid filtration onto GF/B grade Unifilter plates using a TomTec cell harvester, followed by 5×0.5 ml washes with ddH2O. Nonspecific binding was defined in the presence of 1 μM CGS15943 (HEK293-hA2A) or 1 μM DPCPX (CHO-hA1). Bound radioactivity was determined by liquid scintillation counting and inhibition curves were analysed using a four-parameter logistic equation. IC50 values were converted to Ki values with the Cheng-Prusoff equation using a KD value derived from saturation binding studies.
As to `Nc1nc(-c2ccccc2)c(-c2cc(Cl)nc(CO)c2)c2nn(Cc3ccc(F)cn3)c(=O)n12` [Example 1-69, 5-amino-8-[2-chloro-6-(hydroxymethyl)-4-pyridyl]-2-[(5-fluoro-2-pyridyl)methyl]-7-phenyl-[1,2,4]triazolo[4,3-c]pyrimidin-3-one], the Ki is 251 nM.

In the next test the target is T2, human adenosine A2A receptor (Homo sapiens, UniProt P29274).
T2 construct: expressed in transfected cells; host or cells: HEK293 cells infected with BacMam
T2 sequence (P29274 whole entry): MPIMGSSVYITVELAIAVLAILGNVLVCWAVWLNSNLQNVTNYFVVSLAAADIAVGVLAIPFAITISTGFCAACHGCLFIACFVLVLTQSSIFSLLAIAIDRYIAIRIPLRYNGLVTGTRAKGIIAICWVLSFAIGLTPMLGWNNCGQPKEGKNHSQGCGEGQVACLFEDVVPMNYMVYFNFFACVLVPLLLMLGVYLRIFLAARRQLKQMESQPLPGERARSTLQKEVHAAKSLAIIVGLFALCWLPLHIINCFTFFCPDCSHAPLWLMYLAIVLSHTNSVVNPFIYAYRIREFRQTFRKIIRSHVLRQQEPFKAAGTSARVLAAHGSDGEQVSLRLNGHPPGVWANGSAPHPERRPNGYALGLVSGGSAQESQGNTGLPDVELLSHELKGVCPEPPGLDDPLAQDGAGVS
The test is described as follows: Inhibition binding assay, human adenosine A2A receptor membranes, [3H]ZM241385. The following applies: 1 nM [3H]ZM241385, HEK293-hA2A membranes, 25° C., 1 h; IC50 converted to Ki with Cheng-Prusoff; read-out: A2A pKi (converted). On the procedure:
as §1
For the compound `Nc1nc(-c2ccccc2)c(-c2cc(Cl)nc(CO)c2)c2nn(Cc3ccc(F)cn3)c(=O)n12` [Example 1-69, 5-amino-8-[2-chloro-6-(hydroxymethyl)-4-pyridyl]-2-[(5-fluoro-2-pyridyl)methyl]-7-phenyl-[1,2,4]triazolo[4,3-c]pyrimidin-3-one], the Ki was 0.794 nM. In the case of `Cc1cc(-c2c(-c3ccccc3)nc(N)n3c(=O)n(C[C@H]4CNCCN4C)nc23)cc(C)n1` [Example 2-86, 5-amino-8-(2,6-dimethyl-4-pyridyl)-2-[[(2R)-1-methylpiperazin-2-yl]methyl]-7-phenyl-[1,2,4]triazolo[4,3-c]pyrimidin-3-one], the Ki was 25.1 nM.

Consider `Cc1cc(-c2c(-c3ccccc3)nc(N)n3c(=O)n(C[C@H]4COCCN4C(=O)OC(C)(C)C)nc23)cc(C)n1` [Example 2-75, tert-butyl (3S)-3-[[5-amino-8-(2,6-dimethyl-4-pyridyl)-3-oxo-7-phenyl-[1,2,4]triazolo[4,3-c]pyrimidin-2-yl]methyl]morpholine-4-carboxylate], for which the Ki is 100 nM. The same measure, in the same setting: as for `Cc1cc(-c2c(-c3ccccc3)nc(N)n3c(=O)n(C[C@@H]4CN(C)CCN4C)nc23)cc(C)n1` [Example 2-87, (S)-5-amino-2-((1,4-dimethylpiperazin-2-yl)methyl)-8-(2,6-dimethylpyridin-4-yl)-7-phenyl-[1,2,4]triazolo[4,3-c]pyrimidin-3(2H)-one], the figure is 100 nM; as for `COC(=O)N1CCCC(NCCn2nc3c(-c4cc(C)nc(C)c4)c(-c4ccccc4)nc(N)n3c2=O)C1` (stereo not shown) [Example 2-106, methyl 3-[2-[5-amino-8-(2,6-dimethyl-4-pyridyl)-3-oxo-7-phenyl-[1,2,4]triazolo[4,3-c]pyrimidin-2-yl]ethylamino]piperidine-1-carboxylate], 100 nM.

`Cc1cc(-c2c(-c3ccccc3)nc(N)n3c(=O)n(C[C@H]4CN(C)CCO4)nc23)cc(C)n1` [Example 2-74, 5-amino-8-(2,6-dimethyl-4-pyridyl)-2-[[(2R)-4-methylmorpholin-2-yl]methyl]-7-phenyl-[1,2,4]triazolo[4,3-c]pyrimidin-3-one]: the Ki was 15.8 nM. Turning to `Cc1cc(-c2c(-c3ccccc3)nc(N)n3c(=O)n(C[C@@H]4CNCCO4)nc23)cc(C)n1` [Example 2-71, (S)-5-amino-8-(2,6-dimethylpyridin-4-yl)-2-(morpholin-2-ylmethyl)-7-phenyl-[1,2,4]triazolo[4,3-c]pyrimidin-3(2H)-one], the Ki is 31.6 nM.

Regarding `Cc1cc(-c2c(-c3ccccc3)nc(N)n3c(=O)n(CCN4CCCCC4)nc23)cc(C)n1` [Example 2-96, 5-amino-8-(2,6-dimethyl-4-pyridyl)-7-phenyl-2-[2-(1-piperidyl)ethyl]-[1,2,4]triazolo[4,3-c]pyrimidin-3-one], the Ki is 15.8 nM. The same measure, in the same setting: as for `Cc1cc(-c2c(-c3ccco3)nc(N)n3c(=O)n(CCC(F)(F)F)nc23)cc(C)n1` [Example 2-42, 5-amino-8-(2,6-dimethyl-4-pyridyl)-7-(2-furyl)-2-(3,3,3-trifluoropropyl)-[1,2,4]triazolo[4,3-c]pyrimidin-3-one], the figure is 1 nM. Consider `CCNC(=O)OCCn1nc2c(-c3cc(C)nc(C)c3)c(-c3ccccc3)nc(N)n2c1=O` [Example 2-16, 2-[5-amino-8-(2,6-dimethyl-4-pyridyl)-3-oxo-7-phenyl-[1,2,4]triazolo[4,3-c]pyrimidin-2-yl]ethyl N-ethylcarbamate], for which the Ki was 20 nM. With `Cc1cc(-c2c(-c3ccc(F)cc3)nc(N)n3c(=O)n(Cc4ccc(F)cn4)nc23)cc(CO)n1` [Example 1-59, 5-amino-7-(4-fluorophenyl)-2-[(5-fluoro-2-pyridyl)methyl]-8-[2-(hydroxymethyl)-6-methyl-4-pyridyl]-[1,2,4]triazolo[4,3-c]pyrimidin-3-one], the Ki is 1.58 nM. As to `Cc1cc(-c2c(-c3ccccc3)nc(N)n3c(=O)n(CCC(N)=O)nc23)cc(C)n1` [Example 2-31, 3-[5-amino-8-(2,6-dimethyl-4-pyridyl)-3-oxo-7-phenyl-[1,2,4]triazolo[4,3-c]pyrimidin-2-yl]propanamide], the Ki was 25.1 nM.

For `COc1cc(-c2c(-c3ccc(F)cc3)nc(N)n3c(=O)n(Cc4ccc(C)cn4)nc23)cc(CO)n1` [Example 1-67, 5-amino-7-(4-fluorophenyl)-8-[2-(hydroxymethyl)-6-methoxy-4-pyridyl]-2-[(5-methyl-2-pyridyl)methyl]-[1,2,4]triazolo[4,3-c]pyrimidin-3-one], the Ki is 0.794 nM. Take `CNC(=O)CCn1nc2c(-c3cc(C)nc(C)c3)c(-c3ccccc3)nc(N)n2c1=O` [Example 2-113, 3-(5-amino-8-(2,6-dimethylpyridin-4-yl)-3-oxo-7-phenyl-[1,2,4]triazolo[4,3-c]pyrimidin-2(3H)-yl)-N-methylpropanamide]: the Ki is 25.1 nM.

As to `Cc1cc(-c2c(-c3ccccc3)nc(N)n3c(=O)n(C[C@H]4CN(C)CCN4C)nc23)cc(C)n1` [Example 2-85, (R)-5-amino-2-((1,4-dimethylpiperazin-2-yl)methyl)-8-(2,6-dimethylpyridin-4-yl)-7-phenyl-[1,2,4]triazolo[4,3-c]pyrimidin-3(2H)-one], the Ki is 7.94 nM. Regarding `Cc1cc(-c2c(-c3ccccc3)nc(N)n3c(=O)n(C[C@@H]4CNCCN4C)nc23)cc(C)n1` [Example 2-88, 5-amino-8-(2,6-dimethyl-4-pyridyl)-2-[[(2S)-1-methylpiperazin-2-yl]methyl]-7-phenyl-[1,2,4]triazolo[4,3-c]pyrimidin-3-one], the Ki was 79.4 nM. For the compound `Cc1cc(-c2c(-c3ccc(F)cc3)nc(N)n3c(=O)n(CC4CCCN=N4)nc23)cc(CO)n1` (stereo not shown) [Example 2-93, 5-amino-7-(4-fluorophenyl)-8-[2-(hydroxymethyl)-6-methyl-4-pyridyl]-2-(3,4,5,6-tetrahydropyridazin-3-ylmethyl)-[1,2,4]triazolo[4,3-c]pyrimidin-3-one], the Ki was 31.6 nM. Still for that read-out and setting: as for `Cc1cc(-c2c(-c3ccccc3)nc(N)n3c(=O)n(Cc4ccc(C#N)cn4)nc23)cc(CO)n1` [Example 1-54, 6-[[5-amino-8-[2-(hydroxymethyl)-6-methyl-4-pyridyl]-3-oxo-7-phenyl-[1,2,4]triazolo[4,3-c]pyrimidin-2-yl]methyl]pyridine-3-carbonitrile], the figure is 158 nM; as for `Cc1cnn(-c2nc(N)n3c(=O)n(CCC(F)(F)F)nc3c2-c2cc(C)nc(C)c2)c1` [Example 2-41, 5-amino-8-(2,6-dimethyl-4-pyridyl)-7-(4-methylpyrazol-1-yl)-2-(3,3,3-trifluoropropyl)-[1,2,4]triazolo[4,3-c]pyrimidin-3-one], 31.6 nM; as for `Cc1cc(-c2c(-c3ccccc3)nc(N)n3c(=O)n(CCN(C)C4(CO)CCc5ccccc5C4)nc23)cc(C)n1` (stereo not shown) [Example 1-99, 5-amino-8-(2,6-dimethyl-4-pyridyl)-2-[2-[[2-(hydroxymethyl)tetralin-2-yl]-methyl-amino]ethyl]-7-phenyl-[1,2,4]triazolo[4,3-c]pyrimidin-3-one], 39.8 nM. Still for that read-out and setting: to `Cc1cc(-c2c(-c3ccccc3)nc(N)n3c(=O)n(CCN4CCCC(C)C4)nc23)cc(C)n1` (stereo not shown) [Example 2-98, 5-amino-8-(2,6-dimethyl-4-pyridyl)-2-[2-(3-methyl-1-piperidyl)ethyl]-7-phenyl-[1,2,4]triazolo[4,3-c]pyrimidin-3-one] belongs 20 nM. On the same count and under the same terms, as for `Cc1cc(-c2c(-c3ccccc3)nc(N)n3c(=O)n(CCN4CCC5CC54)nc23)cc(C)n1` (stereo not shown) [Example 2-95, 2-(2-(2-azabicyclo[3.1.0]hexan-2-yl)ethyl)-5-amino-8-(2,6-dimethylpyridin-4-yl)-7-phenyl-[1,2,4]triazolo[4,3-c]pyrimidin-3(2H)-one], the figure is 6.31 nM; as for `Cc1cc(-c2c(-c3ccccc3)nc(N)n3c(=O)n(C(C)C)nc23)cc(C)n1` [Example 2-4, 5-amino-8-(2,6-dimethyl-4-pyridyl)-2-isopropyl-7-phenyl-[1,2,4]triazolo[4,3-c]pyrimidin-3-one], 50.1 nM; as for `Cc1cc(-c2c(-c3ccccc3)nc(N)n3c(=O)n(CCC4CCN(CCC(=O)O)CC4)nc23)cc(C)n1` [Example 2-110, 3-[4-[2-[5-amino-8-(2,6-dimethyl-4-pyridyl)-3-oxo-7-phenyl-[1,2,4]triazolo[4,3-c]pyrimidin-2-yl]ethyl]-1-piperidyl]propanoic acid], 126 nM.
